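Following 48 hours of exposure in 96-well plates, responses at five concentrations were used to interpolate endpoints linearly. The concentration for full growth arrest is given as TGI.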

What all share (experiment): NCI-60 cell line screen, 48 h
The test system of assay [1] is SF-539 CNS.
For assay [2], the system named is RPMI-8226 leukemia.
Assay [3] relates to UACC-62 melanoma.
The test system of assay [4] is 786-0 renal.
Assay [5] has as its system IGROV1 ovarian.
For assay [6], the system named is HCT-15 colon.
Assay [7] relates to SK-MEL-28 melanoma.
In assay [8] the test system is UACC-257 melanoma.
The subject of assay [9] is DU-145 prostate.
Assay [10] has as its system SR leukemia.
Assay [11] deals with HT29 colon.
In assay [12] the test system is CAKI-1 renal.
The test system of assay [13] is SN12C renal.
Assay [14] relates to MALME-3M melanoma.
Assay [15] deals with SK-OV-3 ovarian.
In assay [16] the test system is A549 NSCLC.
For assay [17], the system named is NCI-H460 lung.
The test system of assay [18] is UO-31 renal.

For the compound `CC(C)(O)/C=C\P(C)(=O)c1ccccc1` (stereo unspecified), the TGI in [1], in assay [2], in assay [3], in assay [4], in [5] and in [6] was over 100 µM in each case. Besides, the TGI in assay [7], in assay [8], in assay [9], in assay [10], in assay [11] and in assay [12] was over 100 µM each time. The TGI in [13], in assay [14], in assay [15], in assay [16] and in assay [17] was over 100 µM throughout.

Take `CC(=O)c1cccc(Nc2c3ccccc3nc3occc23)c1`: the TGI in assay [1] was 7.63 µM; in assay [2], 15.9 µM; in assay [3], 27.7 µM; in assay [4], 27.6 µM; in assay [5] it was 9.58 µM; in assay [6] it was over 100 µM. For the same compound, the TGI in assay [7] was 7.97 µM; in assay [8], 25.5 µM; in assay [9] it was over 100 µM; in [18], over 100 µM; in [10] it was over 100 µM; in [11], 8.46 µM. Moreover, the TGI in assay [12] is 8.82 µM; in assay [13], over 100 µM; in assay [14], 27.6 µM; in [15], 36 µM; in assay [16], over 100 µM; in [17] it was over 100 µM.

In the case of `CC(C)(C)OC(=O)NNC(=O)C1Cc2ccccc2OC1=O` (stereo unspecified), the TGI in assay [1], in assay [2], in [3], in assay [4], in assay [5] and in assay [6] was over 100 µM in each case. The TGI in [7], in [8], in assay [9], in assay [18], in assay [10] and in [11] was over 100 µM each time. In addition, the TGI in [12], in [13], in assay [14], in assay [15], in assay [16] and in assay [17] was over 100 µM in each case.

For the compound `CN(C)Cc1cc(N=Nc2ccccc2Cl)ccc1O`, the TGI in [1] is 59.5 µM; in [2] it was 81.4 µM; in assay [3] it was 40.9 µM; in [4] it was 35.4 µM; in assay [5] it was over 100 µM; in assay [6], 75.5 µM. Further, the TGI in assay [7] was 32.3 µM; in assay [8] it was 46.3 µM; in [9], 71.4 µM; in [18], 36.5 µM; in assay [10], over 100 µM; in [11], 33.7 µM. Also, the TGI is 56.6 µM in assay [12]; over 100 µM in assay [13]; 25.9 µM in assay [14]; over 100 µM in assay [15]; 25.3 µM in [16]; 18.2 µM in assay [17].

Turning to `CC(=O)OCC1OC(O[C@@H]2C[C@H]3C(C)(C)[C@H](OC(C)=O)CC[C@]3(C)[C@H]3CC[C@]4(C)C(=CC[C@H]4[C@@H](C)C[C@@H](O)[C@H](O)C(C)(C)O)[C@@]32C)C(O)C(O)C1O` (stereo partly specified), the TGI was 29.9 µM in [1]; 30.2 µM in assay [2]; 30.5 µM in assay [3]; 29.9 µM in assay [4]; 33.8 µM in [5]; 31.4 µM in assay [6]. Moreover, the TGI in [7] turned out to be 29.8 µM; in assay [8] it was 35.1 µM; in assay [9] it was 32.1 µM; in assay [18], 31.9 µM; in [10], 31.8 µM; in assay [11], 32.5 µM. Moreover, the TGI in [12] was found to be 27.3 µM; in assay [13] it was 31.7 µM; in assay [14], 31.9 µM; in assay [15], 32.5 µM; in assay [17], 31.2 µM.

Turning to `Cc1ccc(-c2cn3c(nc4ccccc43)c(-c3ccccc3)n2)cc1`, the TGI in assay [1] was over 100 µM; in [2] it was over 100 µM; in [3] it was over 72.5 µM; in assay [4], 49.2 µM; in assay [5], over 100 µM; in assay [6], over 100 µM. Also, the TGI is over 100 µM in assay [7]; over 100 µM in assay [8]; over 100 µM in assay [9]; over 73.9 µM in [18]; over 100 µM in assay [10]; over 100 µM in assay [11]. The TGI in [12] is over 100 µM; in assay [13], over 100 µM; in [14], over 100 µM; in assay [15], 47.9 µM; in assay [16], over 100 µM; in [17], over 100 µM.

As for `CCOC(=O)/C(=C\c1ccnc2ccccc12)P(=O)(OCC)OCC`, the TGI in [1] worked out at 3.32 µM; in assay [2], 5.93 µM; in assay [3], 10.4 µM; in [4] it was 6.14 µM; in [5], 4.33 µM; in [6], 3.3 µM. The TGI in [7] turned out to be 3.35 µM; in [8], 14 µM; in [9], 7.52 µM; in assay [10] it was 5.38 µM; in assay [11], 4.62 µM; in assay [12] it was 7.66 µM. In addition, the TGI in assay [13] turned out to be 9.19 µM; in [14] it was 3.71 µM; in [15] it was 15.5 µM; in assay [16], 14.7 µM; in assay [17], 8.72 µM.

As for `NC(N)=NCc1ccc2c(c1)OCO2`, the TGI in [1], in assay [2], in assay [3], in assay [4], in [5] and in assay [6] was over 100 µM throughout. The TGI in [7], in [9], in assay [18], in assay [10], in [11] and in assay [12] was over 100 µM throughout. Moreover, the TGI in assay [14], in [15], in [16] and in [17] was over 100 µM each time.

As to `CN(C)CCn1c(=O)oc2cc(C(=O)CN3CCOCC3)ccc21`, the TGI in assay [1], in [2], in assay [3], in assay [4], in assay [5] and in assay [6] was over 100 µM in each case. Further, the TGI in [7], in assay [8], in [9], in [18], in [10] and in assay [11] was over 100 µM each time. Also, the TGI in assay [12], in assay [13], in assay [14], in [15] and in [17] was over 100 µM in each case.

With `CSC1=C(C#N)C(=O)N(c2ccc(Cl)cc2)C(=O)C1C#N` (stereo unspecified), the TGI in [1], in assay [2], in [3], in assay [4], in assay [5] and in [6] was over 100 µM each time. The TGI in assay [7], in assay [8], in assay [9], in assay [18], in [10] and in assay [11] was over 100 µM in each case. Also, the TGI in assay [12], in assay [13], in assay [14], in assay [15], in [16] and in assay [17] was over 100 µM in each case.

As to `C=CCOc1ccc(C2(c3ccc(OCC=C)cc3)C(=O)Nc3ccccc32)cc1`, the TGI in assay [1], in [2], in assay [3], in assay [4], in assay [5] and in [6] was over 10 µM each time. In addition, the TGI in assay [7], in [8], in assay [9], in [10], in [11] and in assay [12] was over 10 µM each time. Further, the TGI in assay [13], in assay [14], in [15], in [16] and in [17] was over 10 µM in each case.

On to `Cc1ccc(C(=O)OC(C)C)cc1N=NN(C)C`, for which the TGI in assay [1], in [2], in assay [3], in [4], in assay [5] and in [6] was over 100 µM in each case. In addition, the TGI is over 100 µM in assay [7]; 81.9 µM in [8]; over 100 µM in [9]; over 100 µM in assay [18]; over 100 µM in assay [10]; over 100 µM in assay [11]. For the same compound, the TGI in [12], in assay [13], in assay [14], in assay [15], in assay [16] and in assay [17] was over 100 µM each time.

As for `COC(=O)/C=C\[C@@H]1[C@H](C)N1S(=O)(=O)c1ccc(C)cc1` (stereo partly specified), the TGI in assay [1], in [2], in [3], in [4], in assay [5] and in assay [6] was over 100 µM each time. Also, the TGI in [7], in [8], in assay [9], in assay [10], in assay [11] and in assay [12] was over 100 µM in each case. For the same compound, the TGI in [13], in assay [14], in [15], in assay [16] and in assay [17] was over 100 µM in each case.

Consider `COc1cc(OC)cc(-n2c(N)c(-c3nc4ccccc4s3)c3ccc([N+](=O)[O-])cc3c2=O)c1`, for which the TGI in assay [1] is 37.5 µM; in assay [2], over 100 µM; in [3], over 100 µM; in assay [4], over 100 µM; in assay [6], over 100 µM; in assay [7], over 100 µM. For the same compound, the TGI in assay [8] was over 100 µM; in assay [9], over 100 µM; in assay [18], over 100 µM; in [10] it was 89.7 µM; in assay [11] it was over 100 µM; in assay [12], over 100 µM. Moreover, the TGI in assay [13] was 82.8 µM; in assay [14], over 100 µM; in assay [15], over 100 µM; in [17], over 100 µM.

On to `CCc1cccc(CC)c1Nc1nc2c(s1)C(=O)c1ccccc1C2=O`, for which the TGI in [1] is 49.1 µM; in assay [2] it was over 100 µM; in assay [3], 32.3 µM; in assay [4] it was 36 µM; in [5], 25.7 µM; in assay [6] it was 98.1 µM. The TGI stood at 35.9 µM in assay [7]; 37.8 µM in [8]; 45.3 µM in [9]; 29.2 µM in [18]; 89.5 µM in [10]; 30 µM in assay [12]. For the same compound, the TGI is 47.9 µM in assay [13]; 31.5 µM in assay [14]; 89.8 µM in [15]; over 100 µM in assay [16]; 34.9 µM in [17].

For the compound `FC(F)(F)c1ccc2c(c1)nc(Cc1ccc(Cl)c(Cl)c1)n2CC1CCCN2CCCCC12` (stereo unspecified), the TGI was 40 µM in assay [1]; over 100 µM in assay [2]; 30.2 µM in assay [3]; 30.7 µM in assay [4]; over 100 µM in assay [5]; over 100 µM in [6]. The TGI in assay [7] is 53.8 µM; in assay [8], 41 µM; in [9] it was over 100 µM; in assay [10], 74.6 µM; in [11], 28.2 µM; in assay [12] it was over 100 µM. Further, the TGI is 42.8 µM in assay [13]; 28.6 µM in assay [14]; 90 µM in assay [15]; 44.2 µM in [16]; 52.4 µM in assay [17].

The values are drawn from PubChem BioAssay (NCI).
